Data: patent US5698670A, “Aureobasidins” (priority 1993, dated 1997)
Values after ≈ are worked out from the molar mass of the structure shown. Where two headings read alike, the source gives them in different places. Numbered stars: 1 amine (or outer) side, 2 acyl side, 3 side chain; on linkers, the order of the positions; unused ones are H or OH. Square brackets hold non-standard residues; d marks the D form. Peptide text beside a SMILES is read from it. * marks the point of attachment. X1 = CC[C@@H](C)[C@@H](O[*:1])C(=O)[*:2]; NMeVal(β-OH) = CN[C@H](C(=O)O)C(C)(C)O; NMeF = CN[C@@H](Cc1ccccc1)C(=O)O; aIle = CC[C@@H](C)[C@H](N)C(=O)O; Cyclohexylmethyl = C1CCC(C*)CC1; Cha = N[C@@H](CC1CCCCC1)C(=O)O; dNMeV = CN[C@@H](C(=O)O)C(C)C; NMeV = CN[C@H](C(=O)O)C(C)C; dNMeS = CN[C@H](CO)C(=O)O; dNMeA = CN[C@H](C)C(=O)O; Bn = c1ccc(C*)cc1

Tests used:
[1] = amide bond, 27-membered ring, PyBroP/DIEA, CH2Cl2
[2] = test system: Candida albicans TIMM0136; test: MIC by agarose plate dilution method; assay type: cell-based; conditions: saburo-dextrose agarose culture, 30° C., 2 days
Protocol: (§1) MIC was measured by agarose plate dilution method (cultivated at 30° C. for 2 days) using saburo-dextrose agarose culture (glucose 2 W/V %, polipeptone 1 W/V %, agarose 1.5 W/V %). Control was Aureobasidin A (AbA).

[3] = test system: Candida glabrata TIMM1062; test: MIC by agarose plate dilution method; assay type: cell-based; conditions: saburo-dextrose agarose culture, 30° C., 2 days
Protocol: as §1

[4] = test system: Candida albicans TIMM0171; test: MIC by agarose plate dilution method; assay type: cell-based; conditions: saburo-dextrose agarose culture, 30° C., 2 days
Protocol: as §1

[5] = test system: Candida kefyr TIMM0301; test: MIC by agarose plate dilution method; assay type: cell-based; conditions: saburo-dextrose agarose culture, 30° C., 2 days
Protocol: as §1

[6] = test system: Cryptococcus neoformans TIMM0354; assay type: cell-based; conditions: for activity for Cryptococcus compared with Aureobasidin A: in words
Protocol: as §1

[7] = test system: Aspergillus fumigatus TIMM2766; assay type: cell-based
Protocol: as §1

[8] = Cryptococcus neoformans TIMM0354, saburo-dextrose agarose culture, 30° C., 2 days
[9] = Aspergillus fumigatus TIMM2766, saburo-dextrose agarose culture, 30° C., 2 days

Row | SMILES | MIC [2] | MIC [3] | MIC [4] | MIC [5] | MIC [6, 8] | MIC ([6]; TIMM0354) | MIC [7, 9] | also measured
1 | CC[C@@H](C)[C@@H]1NC(=O)[C@@H]2CCCN2C(=O)[C@@H](C)N(C)C(=O)[C@H](Cc2ccc(F)cc2)NC(=O)[C@H](C(C)C)N(C)C(=O)[C@@H]([C@H](C)CC)OC(=O)[C@H](C(C)(C)O)N(C)C(=O)[C@H](CC(C)C)NC(=O)[C@H](C(C)C)N(C)C1=O | – | – | – | – | – | – | – | ring closure, isolated yield ([1]; from H-aIle-MeVal-Leu-βHOMeVal-dHmp-MeVal-pFPhe-dMeAla-Pro-OH, 1.0 mM, 25.0 °C): 29.8%
2 | CC[C@@H](C)[C@@H]1NC(=O)[C@@H]2CCCN2C(=O)[C@@H](C)N(C)C(=O)[C@H](Cc2ccc(OCc3ccccc3)cc2)NC(=O)[C@H](C(C)C)N(C)C(=O)[C@@H]([C@H](C)CC)OC(=O)[C@H](C(C)(C)O)N(C)C(=O)[C@H](CC(C)C)NC(=O)[C@H](C(C)C)N(C)C1=O | – | – | – | – | – | – | – | ring closure, isolated yield ([1]; from H-aIle-MeVal-Leu-βHOMeVal-dHmp-MeVal-Tyr(Bzl)-dMeAla-Pro-OH, 1.0 mM): 41.5%
3 | CC[C@@H](C)[C@@H]1NC(=O)[C@@H]2CCCN2C(=O)[C@H](Cc2ccccc2)N(C)C(=O)[C@H](CC2CCCCC2)NC(=O)[C@H](C(C)C)N(C)C(=O)[C@@H]([C@H](C)CC)OC(=O)[C@H](C(C)(C)O)N(C)C(=O)[C@H](CC(C)C)NC(=O)[C@H](C(C)C)N(C)C1=O [Compound 6, cyclo(L -aIle-L -MeVal-L -Leu-L -βHOMeVal-D -Hmp-L -MeVal-L -Cha-L -MePhe-L -Pro)] (cyclo([aIle][NMeV]L[NMeVal(β-OH)][X1][NMeV][Cha][NMeF]P)) | 0.39 µg/mL (≈ 0.352 µM) | 1.56 µg/mL (≈ 1.41 µM) | 0.20 µg/mL (≈ 0.181 µM) | 1.56 µg/mL (≈ 1.41 µM) | 0.20 µg/mL (≈ 0.181 µM) | 0.10 to 0.39 µg/mL | > 25 µg/mL | ring closure, isolated yield ([1]; from H-aIle-MeVal-Leu-βHOMeVal-dHmp-MeVal-Cha-MePhe-Pro-OH?, 1.01 mM, 25.0 °C): 23.9%
4 | CC[C@@H](C)[C@@H]1NC(=O)[C@@H]2CCCN2C(=O)[C@@H](C(C)C)N(C)C(=O)[C@H](CC2CCCCC2)NC(=O)[C@H](C(C)C)N(C)C(=O)[C@@H]([C@H](C)CC)OC(=O)[C@H](C(C)(C)O)N(C)C(=O)[C@H](CC(C)C)NC(=O)[C@H](C(C)C)N(C)C1=O [Compound 8, cyclo(L -aIle-L -MeVal-L -Leu-L -βHOMeVal-D -Hmp-L -MeVal-L -Cha-D -MeVal-L -Pro)] (cyclo([aIle][NMeV]L[NMeVal(β-OH)][X1][NMeV][Cha][dNMeV]P)) | 0.10 µg/mL (≈ 0.0944 µM) | 0.78 µg/mL (≈ 0.736 µM) | 0.05 µg/mL (≈ 0.0472 µM) | 0.78 µg/mL (≈ 0.736 µM) | 0.39 µg/mL (≈ 0.368 µM) | 0.10 to 0.39 µg/mL | > 25 µg/mL | ring closure, isolated yield ([1]; from H-aIle-MeVal-Leu-βHOMeVal-dHmp-MeVal-Cha-dMeVal-Pro-OH, 1.0 mM): 20.5%
5 | CC[C@@H](C)[C@@H]1NC(=O)[C@@H]2CCCN2C(=O)[C@@H](C)N(C)C(=O)[C@H](CC(C)C)NC(=O)[C@H](C(C)C)N(C)C(=O)[C@@H]([C@H](C)CC)OC(=O)[C@H](C(C)(C)O)N(C)C(=O)[C@H](CC(C)C)NC(=O)[C@H](C(C)C)N(C)C1=O [Compound 5, cyclo(L -aIle-L -MeVal-L -Leu-L -βHOMeVal-D -Hmp-L -MeVal-L -Leu-D -MeAla-L -Pro)] (cyclo(L[dNMeA]P[aIle][NMeV]L[NMeVal(β-OH)][X1][NMeV])) | – | – | – | – | – | 0.10 to 0.39 µg/mL | – | ring closure, isolated yield ([1]; from H-aIle-MeVal-Leu-βHOMeVal-dHmp-MeVal-Leu-dMeAla-Pro-OH, 1.0 mM, 25.0 °C): 39.4%
6 | CC[C@@H](C)[C@@H]1NC(=O)[C@@H]2CCCN2C(=O)[C@@H](C)N(C)C(=O)[C@H](Cc2ccc(OCC3CCCCC3)cc2)NC(=O)[C@H](C(C)C)N(C)C(=O)[C@@H]([C@H](C)CC)OC(=O)[C@H](C(C)(C)O)N(C)C(=O)[C@H](CC(C)C)NC(=O)[C@H](C(C)C)N(C)C1=O [Compound 12, cyclo(L -aIle-L -MeVal-L -Leu-L -βHOMeVal-D -Hmp-L -MeVal-L -Tyr(c-C6 H11 --CH2 --)-D -MeAla-L -Pro)] (cyclo([aIle][NMeV]L[NMeVal(β-OH)][X1][NMeV]Y(Cyclohexylmethyl)[dNMeA]P)) | 0.10 µg/mL (≈ 0.0879 µM) | 0.39 µg/mL (≈ 0.343 µM) | 0.39 µg/mL (≈ 0.343 µM) | 1.56 µg/mL (≈ 1.37 µM) | 0.20 µg/mL (≈ 0.176 µM) | 0.10 to 0.39 µg/mL | 1.56 µg/mL (≈ 1.37 µM) | activity for Cryptococcus compared with Aureobasidin A [6]: stronger activity than Aureobasidin A; MIC ([7]; TIMM2766): 1.56 to 25 µg/mL; ring closure, isolated yield ([1]; from H-aIle-MeVal-Leu-βHOMeVal-dHmp-MeVal-Tyr(c-C6H11-CH2)-dMeAla-Pro-OH, 1.0 mM): 52.3%
7 | CC[C@@H](C)[C@@H]1NC(=O)[C@@H]2CCCN2C(=O)[C@@H](C)N(C)C(=O)[C@H](Cc2ccccc2)NC(=O)[C@H](C(C)C)N(C)C(=O)[C@@H]([C@H](C)CC)OC(=O)[C@H](C(C)(C)O)N(C)C(=O)[C@H](CC(C)C)NC(=O)[C@H](C(C)C)N(C)C1=O [Compound 1, cyclo(L -aIle-L -MeVal-L -Leu-L -βHOMeVal-D -Hmp-L -MeVal-L -Phe-D -MeAla-L -Pro)] (cyclo([aIle][NMeV]L[NMeVal(β-OH)][X1][NMeV]F[dNMeA]P)) | 0.05 µg/mL (≈ 0.0488 µM) | 0.20 µg/mL (≈ 0.195 µM) | 0.05 µg/mL (≈ 0.0488 µM) | 0.20 µg/mL (≈ 0.195 µM) | 3.12 µg/mL (≈ 3.04 µM) | – | – | ring closure, isolated yield ([1]; from H-aIle-MeVal-Leu-βHOMeVal-dHmp-MeVal-Phe-dMeAla-Pro-OH, 0.97 mM, 25.0 °C): 55.5%
8 | CC[C@@H](C)[C@@H]1NC(=O)[C@@H]2CCCN2C(=O)[C@@H](C(C)C)N(C)C(=O)[C@H](Cc2ccccc2)NC(=O)[C@H](C(C)C)N(C)C(=O)[C@@H]([C@H](C)CC)OC(=O)[C@H](C(C)(C)O)N(C)C(=O)[C@H](CC(C)C)NC(=O)[C@H](C(C)C)N(C)C1=O | – | – | – | – | – | – | – | ring closure, isolated yield ([1]; from H-aIle-MeVal-Leu-βHOMeVal-dHmp-MeVal-Phe-dMeVal-Pro-OH, 1.0 mM, 25.0 °C): 35%
9 | CC[C@@H](C)[C@@H]1NC(=O)[C@@H]2CCCN2C(=O)[C@@H](C)N(C)C(=O)[C@H](CC2CCCCC2)NC(=O)[C@H](C(C)C)N(C)C(=O)[C@@H]([C@H](C)CC)OC(=O)[C@H](C(C)(C)O)N(C)C(=O)[C@H](CC(C)C)NC(=O)[C@H](C(C)C)N(C)C1=O [Compound 3, cyclo(L -aIle-L -MeVal-L -Leu-L -βHOMeVal-D -Hmp-L -MeVal-L -Cha-D -MeAla-L -Pro)] (cyclo([aIle][NMeV]L[NMeVal(β-OH)][X1][NMeV][Cha][dNMeA]P)) | 0.0125 µg/mL (≈ 0.0121 µM) | 0.10 µg/mL (≈ 0.097 µM) | 0.025 µg/mL (≈ 0.0242 µM) | 0.20 µg/mL (≈ 0.194 µM) | 0.10 µg/mL (≈ 0.097 µM) | 0.10 to 0.39 µg/mL | 3.12 µg/mL (≈ 3.03 µM) | activity for Cryptococcus compared with Aureobasidin A [6]: stronger activity than Aureobasidin A; MIC ([7]; TIMM2766): 1.56 to 25 µg/mL; ring closure, isolated yield ([1]; from H-aIle-MeVal-Leu-βHOMeVal-dHmp-MeVal-Cha-dMeAla-Pro-OH, 1.0 mM, 25.0 °C): 28.6%
10 | CC[C@@H](C)[C@@H]1NC(=O)[C@@H]2CCCN2C(=O)[C@@H](CO)N(C)C(=O)[C@H](CC2CCCCC2)NC(=O)[C@H](C(C)C)N(C)C(=O)[C@@H]([C@H](C)CC)OC(=O)[C@H](C(C)(C)O)N(C)C(=O)[C@H](CC(C)C)NC(=O)[C@H](C(C)C)N(C)C1=O [Compound 9, cyclo(L -aIle-L -MeVal-L -Leu-L -βHOMeVal-D -Hmp-L -MeVal-L -Cha-D -MeSer-L -Pro)] (cyclo([aIle][NMeV]L[NMeVal(β-OH)][X1][NMeV][Cha][dNMeS]P)) | 0.20 µg/mL (≈ 0.191 µM) | 0.78 µg/mL (≈ 0.745 µM) | 0.20 µg/mL (≈ 0.191 µM) | 0.78 µg/mL (≈ 0.745 µM) | 0.20 µg/mL (≈ 0.191 µM) | 0.10 to 0.39 µg/mL | > 25 µg/mL | –
11 | CC[C@@H](C)[C@@H]1NC(=O)[C@@H]2CCCN2C(=O)[C@@H](C)N(C)C(=O)[C@H](COCc2ccccc2)NC(=O)[C@H](C(C)C)N(C)C(=O)[C@@H]([C@H](C)CC)OC(=O)[C@H](C(C)(C)O)N(C)C(=O)[C@H](CC(C)C)NC(=O)[C@H](C(C)C)N(C)C1=O [Compound 7, cyclo(L -aIle-L -MeVal-L -Leu-L -βHOMeVal-D -Hmp-L -MeVal-L -Ser(Bzl)-D -MeAla-L -Pro)] (cyclo(L[NMeVal(β-OH)][X1][NMeV]S(Bn)[dNMeA]P[aIle][NMeV])) | – | – | – | – | – | 0.10 to 0.39 µg/mL | – | ring closure, isolated yield ([1]; from H-aIle-MeVal-Leu-βHOMeVal-dHmp-MeVal-Ser(Bzl)-dMeAla-Pro-OH, 1.0 mM, 25.0 °C): 45.2%
12 | CC[C@@H](C)[C@@H]1NC(=O)[C@@H]2CCCN2C(=O)[C@@H](COCc2ccccc2)N(C)C(=O)[C@H](CC2CCCCC2)NC(=O)[C@H](C(C)C)N(C)C(=O)[C@@H]([C@H](C)CC)OC(=O)[C@H](C(C)(C)O)N(C)C(=O)[C@H](CC(C)C)NC(=O)[C@H](C(C)C)N(C)C1=O | – | – | – | – | – | – | – | ring closure, isolated yield ([1]; from H-aIle-MeVal-Leu-βHOMeVal-dHmp-MeVal-Cha-dMeSer(Bzl)-Pro-OH, 1.0 mM): 34.3%
